Laboratory results published in patent publication US10703746B2, “Mutant IDH1 inhibitors useful for treating cancer” (THE UNITED STATES OF AMERICA, AS REPRESENTED BY THE …, priority 2014, dated 2020).

Columns and labels:
IDH1 R132H = IDH1 R132H (Homo sapiens, UniProt O75874, R132H); experiment: IDH1 R132H enzymatic assay (NADPH depletion coupled to diaphorase/resazurin); type: biochemical; conditions: enzymatic inhibition, IDH1 R132H
IDH1 R132C = IDH1 R132C (Homo sapiens, UniProt O75874, R132C); experiment: IDH1 R132C enzymatic assay (NADPH depletion coupled to diaphorase/resazurin); type: biochemical; conditions: enzymatic inhibition, IDH1 R132C
Summary of the method: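 NADPH depletion, read via diaphorase/resazurin coupling, after adding substrate at 0.6 mM α-KG and 0.012 mM NADPH. Beforehand, 0.00032 mg/mL enzyme sat with compound 30 min at room temperature in pH 6.5 potassium phosphate buffer with MgCl2, glycerol and BSA.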

Sequence of IDH1 R132C (O75874 whole entry R132C): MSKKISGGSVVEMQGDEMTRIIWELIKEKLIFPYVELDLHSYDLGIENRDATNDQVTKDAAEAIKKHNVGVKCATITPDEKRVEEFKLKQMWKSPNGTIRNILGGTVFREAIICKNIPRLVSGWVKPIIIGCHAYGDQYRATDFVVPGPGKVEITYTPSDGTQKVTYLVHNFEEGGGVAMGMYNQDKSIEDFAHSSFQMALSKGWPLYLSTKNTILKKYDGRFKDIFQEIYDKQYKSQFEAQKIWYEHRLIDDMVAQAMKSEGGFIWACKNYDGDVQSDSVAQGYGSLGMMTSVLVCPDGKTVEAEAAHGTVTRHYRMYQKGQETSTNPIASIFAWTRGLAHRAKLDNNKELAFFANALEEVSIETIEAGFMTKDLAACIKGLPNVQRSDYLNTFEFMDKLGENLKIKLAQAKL
Sequence of IDH1 R132H (O75874 whole entry R132H): as the sequence (O75874 whole entry R132C) above, with C132H counted along it

| IC50 (IDH1 R132H) | IC50 (IDH1 R132C) | SMILES |
| --- | --- | --- |
| < 300 nM | < 300 nM | CCOc1ccc(-n2ccc(-c3cc(C(=O)N4CCNCC4)c(C=C(C)C)n(-c4c(CC)cccc4CC)c3=O)n2)cc1 [Compound 552] |
| < 300 nM | < 300 nM | CC(C)=Cc1c(C(=O)N2CCNCC2)cc(-c2nc(-c3ccc(Cl)cc3)cs2)c(=O)n1-c1cc(Cl)ccc1OC(C)C [Compound 553] |
| 1000 to 5000 nM | 300 to 1000 nM | CCc1cccc(CC)c1-n1c(CC(C)C)c(C(=O)N2CCNCC2)cc(-c2nc(/C=C/c3ccc(Cl)cc3)c(C)s2)c1=O [Compound 555] |
| < 300 nM | < 300 nM | COc1cccc(F)c1-n1c(C=C(C)C)c(C(=O)N2CCNCC2)cc(-c2nc(-c3ccc(Cl)cc3)cs2)c1=O [Compound 556] |
| 1000 to 5000 nM | 1000 to 5000 nM | COc1cc(F)ccc1-n1c2c(cc(-c3nc(-c4ccc(Cl)cc4)cs3)c1=O)C(=O)CC(C)(C)C2 [Compound 557] |
| < 300 nM | < 300 nM | C#Cc1ccccc1-n1c(C=C(C)C)c(C(=O)N2CCNCC2)cc(-c2nc(-c3ccc(Cl)cc3)cs2)c1=O [Compound 558] |
| < 300 nM | < 300 nM | CCc1cccc(CC)c1-n1c(C=C(C)C)c(C(=O)N2CCNCC2)cc(-c2nc(-c3ccc(C(F)F)cn3)cs2)c1=O [Compound 559] |
| 1000 to 5000 nM | 1000 to 5000 nM | CCOC(=O)c1ncsc1-n1c2c(cc(-c3nc(-c4ccc(Cl)cc4)cs3)c1=O)C(=O)CC(C)(C)C2 [Compound 561] |
| < 300 nM | < 300 nM | CCOc1ncc(C)cc1-n1c(C=C(C)C)c(C(=O)N2CCNCC2)cc(-c2nc(-c3ccc(C(F)F)cc3)cs2)c1=O [Compound 562] |
| > 20000 nM | > 20000 nM | Cc1ccc(CN2CCN(C)CC2)cc1-n1c2c(cc(-c3nc(-c4ccc(Cl)cc4)cs3)c1=O)C(=O)CCC2 [Compound 563] |
| 5000 to 20000 nM | 5000 to 20000 nM | O=C1CCCc2c1cc(-c1nc(-c3ccc(Cl)cc3)cs1)c(=O)n2-c1cccc(CO)c1 [Compound 565] |
| 1000 to 5000 nM | 1000 to 5000 nM | COc1cccc(-n2c3c(cc(-c4nc(-c5ccc(Cl)cc5)cs4)c2=O)C(=O)CC(C)(C)C3)c1OC [Compound 567] |
| < 300 nM | < 300 nM | CCOc1ncc(F)cc1-n1c(C=C(C)C)c(C(=O)N2CCNCC2)cc(-c2nc(-c3ccc(C(F)(F)F)cc3)cs2)c1=O [Compound 568] |
| < 300 nM | < 300 nM | CCc1cccc(CC)c1-n1c(C=C(C)C)c(C(=O)N2CCNCC2CC)cc(-c2nc(-c3ccc(Cl)cc3)cs2)c1=O (stereo not shown) [Compound 569] |
| > 20000 nM | > 20000 nM | CN1CCN(Cc2cccc(-n3c4c(cc(-c5nc(-c6ccc(Cl)cc6)cs5)c3=O)C(=O)CCC4)c2)CC1 [Compound 570] |
| < 300 nM | < 300 nM | CCc1ccc(Cl)cc1-n1c(C=C(C)C)c(C(=O)N2CCNCC2)cc(-c2nc(-c3ccc(C(F)F)cc3)cs2)c1=O [Compound 571] |
| < 300 nM | < 300 nM | CCOc1ccccc1-n1c(C=C(C)C)c(C(=O)N2CCNCC2)cc(-c2nc(-c3ccc(Cl)cc3)cs2)c1=O [Compound 572] |
| 300 to 1000 nM | 300 to 1000 nM | CCc1cccc(CC)c1-n1c(CC(C)C)c(C(=O)N2CCNCC2)cc(-c2nc(-c3ccc(Cl)cc3OC)c(C)s2)c1=O [Compound 573] |
| < 300 nM | < 300 nM | CCOc1ncc(Cl)cc1-n1c(C=C(C)C)c(C(=O)N2CCNCC2)cc(-c2nc(-c3ccc(Cl)cc3)cs2)c1=O [Compound 575] |
| < 300 nM | < 300 nM | CCc1ccc(Cl)cc1-n1c(C=C(C)C)c(C(=O)N2CCNCC2)cc(-c2nc(-c3ccc(C(F)(F)F)cc3)cs2)c1=O [Compound 576] |
| < 300 nM | < 300 nM | CCc1cccc(CC)c1-n1c(C=C(C)C)c(C(=O)N2CCN[C@@H](C(=O)O)C2)cc(-c2nc(-c3ccc(C(F)(F)F)cc3)cs2)c1=O [Compound 577] |
| < 300 nM | < 300 nM | CCOc1cccc(CC)c1-n1c(C=C(C)C)c(C(=O)N2CCNCC2)cc(-c2nc(-c3ccc(Cl)cc3)cs2)c1=O [Compound 578] |
| 5000 to 20000 nM | 5000 to 20000 nM | COc1cc(Cl)ccc1-n1c2c(cc(-c3nc(-c4ccc(Cl)cc4)cs3)c1=O)C(=O)CC(C)(C)C2 [Compound 579] |
| < 300 nM | 300 to 1000 nM | CCOc1ncc(Cl)cc1-n1c(C=C(C)C)c(C(=O)N2CCNCC2)cc(-c2nc(-c3ccc(C(F)F)nc3)cs2)c1=O [Compound 580] |
| < 300 nM | < 300 nM | CCc1cccc(CC)c1-n1c(C=C(C)C)c(C(=O)N2CCNCC2)cc(-c2nc(-c3ccc(C(F)(F)F)cc3)cs2)c1=O [Compound 581, 1-(2,6-diethylphenyl)-6-(2-methylprop-1-en-1-yl)-5-(piperazine-1-carbonyl)-3-(4-(4-(trifluoromethyl)phenyl)thiazol-2-yl)pyridin-2(1H)-one] |
| < 300 nM | < 300 nM | CCc1ccc(F)cc1-n1c(C=C(C)C)c(C(=O)N2CCNCC2)cc(-c2nc(-c3ccc(C(F)(F)F)cc3)cs2)c1=O [Compound 583] |
| < 300 nM | < 300 nM | COCc1ncc(Cl)cc1-n1c(C=C(C)C)c(C(=O)N2CCNCC2)cc(-c2nc(-c3ccc(C(F)(F)F)cc3)cs2)c1=O [Compound 586] |

| IC50 (IDH1 R132H) | IC50 (IDH1 R132C) | SMILES |
| --- | --- | --- |
| < 300 nM | < 300 nM | CCOc1ncc(C)cc1-n1c(C=C(C)C)c(C(=O)N2CCNCC2)cc(-c2nc(-c3ccc(C(F)(F)F)cc3)cs2)c1=O [Compound 587] |
| < 300 nM | < 300 nM | CC(C)=Cc1c(C(=O)N2CCNCC2)cc(-c2nc(-c3ccc(Cl)cc3)cs2)c(=O)n1-c1ccccc1OCC(F)(F)F [Compound 589] |
| 5000 to 20000 nM | 5000 to 20000 nM | O=C1CCCc2c1cc(-c1nc(-c3ccc(Cl)cc3)cs1)c(=O)n2-c1ccccc1CCO [Compound 590] |
| < 300 nM | < 300 nM | CCc1cccc(CC)c1-n1c(C=C(C)C)c(C(=O)N2CCNC(C(=O)O)C2)cc(-c2nc(-c3ccc(Cl)cc3)cs2)c1=O (stereo not shown) [Compound 591] |
| 300 to 1000 nM | 1000 to 5000 nM | CCOc1ncc(C)cc1-n1c(C=C(C)C)c(C(=O)N2CCNCC2)cc(-c2nc(-c3ccc(C(F)F)cn3)cs2)c1=O [Compound 592] |
| < 300 nM | < 300 nM | CCc1cccc(CC)c1-n1c(C=C(C)C)c(C(=O)N2CCNC(=O)C2)cc(-c2ccn(-c3ccc(Cl)cc3)n2)c1=O [Compound 593] |
| > 20000 nM | 1000 to 5000 nM | Cc1ccc(-n2c3c(cc(-c4nc(-c5ccc(Cl)cc5)cs4)c2=O)C(=O)CC(C)(C)C3)c(Cl)c1 [Compound 594] |
| > 20000 nM | > 20000 nM | Cc1[nH]c(=O)c(-c2nc(-c3ccc(Cl)cc3)cs2)cc1C(=O)N1CCNCC1 [Compound 595] |
| < 300 nM | < 300 nM | CCc1ccccc1-n1c(C=C(C)C)c(C(=O)N2CCNCC2)cc(-c2nc(-c3ccc(Cl)cc3)cs2)c1=O [Compound 596] |
| > 20000 nM | > 20000 nM | COc1ccc(-n2c3c(cc(-c4nc(-c5ccc(Cl)cc5)cs4)c2=O)C(=O)CC(C)(C)C3)c(OC)c1 [Compound 597] |
| < 300 nM | < 300 nM | CCOc1ccc(-c2csc(-c3cc(C(=O)N4CCNCC4)c(C=C(C)C)n(-c4c(CC)cccc4CC)c3=O)n2)cc1 [Compound 598] |
| < 300 nM | < 300 nM | CCc1cccc(CC)c1-n1c(C=C(C)C)c(C(=O)N2CCNCC2CC(=O)O)cc(-c2nc(-c3ccc(Cl)cc3)cs2)c1=O (stereo not shown) [Compound 599] |
| 300 to 1000 nM | 1000 to 5000 nM | CCc1ccc(Cl)c(CC)c1-n1c(C)c(C(=O)N2CCNCC2)cc(-c2nc(-c3ccc(Cl)cc3)cs2)c1=O [Compound 600] |
| 300 to 1000 nM | < 300 nM | CCc1cccc(CC)c1-n1c(CC(C)C)c(C(=O)N2CCNCC2)cc(-c2nc(-c3ccc(Cl)cc3)c(Br)s2)c1=O [Compound 601] |
| < 300 nM | < 300 nM | CC(C)=Cc1c(C(=O)N2CCNCC2)cc(-c2nc(-c3ccc(Cl)cc3)cs2)c(=O)n1-c1cc(Cl)cnc1OC(C)C [Compound 602] |
| 300 to 1000 nM | 300 to 1000 nM | COc1ccc(C#N)cc1-n1c(C=C(C)C)c(C(=O)N2CCNCC2)cc(-c2nc(-c3ccc(Cl)cc3)cs2)c1=O [Compound 603] |
| < 300 nM | < 300 nM | CCc1cccc(CC)c1-n1c(C=C(C)C)c(C(=O)N2CCNC[C@@H]2C)cc(-c2nc(-c3ccc(C(F)(F)F)cc3)cs2)c1=O [Compound 604] |
| < 300 nM | < 300 nM | CCc1cccc(CC)c1-n1c(C=C(C)C)c(C(=O)N2CCNCC2)cc(-c2nc(-c3ccc(OC4CC4)cc3)cs2)c1=O [Compound 605] |
| < 300 nM | < 300 nM | CCc1cccc(CC)c1-n1c(C=C(C)C)c(C(=O)N2CCNCC2)cc(-c2ccn(-c3ccc(C4CC4)cc3)n2)c1=O [Compound 606] |
| < 300 nM | < 300 nM | CCc1cccc(CC)c1-n1c(CC(C)C)c(C(=O)N2CCNCC2)cc(-c2nc(-c3ccc(Cl)c(F)c3)c(C)s2)c1=O [Compound 608] |
| 300 to 1000 nM | 300 to 1000 nM | CCOc1cccc(OCC)c1-n1c2c(cc(-c3nc(-c4ccc(Cl)cc4)cs3)c1=O)C(=O)CC(C)(C)C2 [Compound 609] |
| 300 to 1000 nM | 300 to 1000 nM | CCc1cccc(CC)c1-n1c2c(cc(-c3nc(-c4ccc(Cl)cc4)cs3)c1=O)C(=O)N1CCCCC21 (stereo not shown) [Compound 610] |
| < 300 nM | < 300 nM | CCc1cccc(CC)c1-n1c(CC2CCOC2)c(C(=O)N2CCNCC2)cc(-c2nc(-c3ccc(Cl)cc3)cs2)c1=O (stereo not shown) [Compound 611] |
| < 300 nM | < 300 nM | CCc1cccc(CC)c1-n1c(CC2CCCCC2)c(C(=O)N2CCNCC2)cc(-c2nc(-c3ccc(Cl)cc3)cs2)c1=O [Compound 612] |
| 300 to 1000 nM | 300 to 1000 nM | Cc1ccc(Cl)c(-n2c3c(cc(-c4nc(-c5ccc(Cl)cc5)cs4)c2=O)C(=O)CC(C)(C)C3)c1 [Compound 613] |
| < 300 nM | < 300 nM | COc1ncccc1-n1c(C=C(C)C)c(C(=O)N2CCNCC2)cc(-c2nc(-c3ccc(Cl)cc3)cs2)c1=O [Compound 614] |
